Laboratory results: PubChem BioAssay AID330 (DTP/NCI, 2004)
Toxic doses and inconclusive results are not listed.

Tested on: P388 leukemia ip, CD2F1 mice, survival T/C
Test: NCI In Vivo Anticancer Drug Screen. Data for tumor model P388 Leukemia (intraperitoneal) in CD2F1 (CDF1) mice
Conditions: endpoint: median survival time, higher = longer survival
How it was run: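 Mice carrying the transplanted tumor received test compound or vehicle. Survival was recorded in each group, and the value is the treated-group measurement divided by that of the vehicle-treated control group.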

[1] = dose: 100.0 mg/kg/injection, schedule: Q04DX002 (ip), vehicle: saline with Tween-80
[2] = dose: 200.0 mg/kg/injection, schedule: Q04DX002 (ip), vehicle: saline with Tween-80
[3] = dose: 400.0 mg/kg/injection, schedule: Q04DX002 (ip), vehicle: saline with Tween-80
[4] = dose: 100.0 mg/kg/injection, schedule: Q01DX009 (ip), vehicle: saline with Tween-80
[5] = dose: 200.0 mg/kg/injection, schedule: Q01DX009 (ip), vehicle: saline with Tween-80
[6] = dose: 60.0 mg/kg/injection, schedule: Q01DX005 (ip), vehicle: saline with Tween-80
[7] = dose: 120.0 mg/kg/injection, schedule: Q01DX005 (ip), vehicle: saline with Tween-80
[8] = dose: 240.0 mg/kg/injection, schedule: Q01DX005 (ip), vehicle: saline with Tween-80

SMILES: Cn1c2ccccc2c2nnc(-n3nc(-c4ccccc4)cc3N)nc21
- T/C [1]: 92 % of control
- T/C [2]: 92 % of control
- T/C [3]: 91 % of control

SMILES: CN(c1ccccc1)C1C=C(c2ccccc2)OC(=O)C1(Cl)Cl (stereo not drawn)
- T/C (dose: 50.0 mg/kg/injection, schedule: Q01DX009 (ip), vehicle: saline with Tween-80): 92 % of control
- T/C [4]: 95 % of control
- T/C [5]: 98 % of control

SMILES: Oc1cc(-c2ccc(Cl)cc2)c(O)cc1CN1CCOCC1
- T/C [1]: 92 % of control
- T/C [2]: 91 % of control
- T/C [3]: 92 % of control

SMILES: FC(F)(F)c1ccccc1Nc1nnc(-c2ccc(Cl)cc2Cl)o1
- T/C [6]: 100 % of control
- T/C [7]: 96 % of control
- T/C [8]: 87 % of control

SMILES: COc1cc2c(c3c1C(=O)c1c(cc4c(c1O)C(OC1OC(C)C(OC)C(C)(OC)C1OC)CC(C)(O)C4)C3=O)OC1OC2(C)C(O)C(N(C)C)C1O (stereo not drawn)
- T/C (dose: 5.0 mg/kg/injection, schedule: Q01DX009 (ip), vehicle: other): 153 % of control
- T/C (dose: 10.0 mg/kg/injection, schedule: Q01DX009 (ip), vehicle: other): 159 % of control
- T/C (dose: 20.0 mg/kg/injection, schedule: Q01DX009 (ip), vehicle: other): 168 % of control

SMILES: COc1cc2ccncc2cc1Oc1c(OC)c(OC)cc2ccncc12
- T/C (dose: 60.0 mg/kg/injection, schedule: Q01DX005 (ip), vehicle: Klucel (hydroxypropylcellulose) (HPC)): 100 % of control
- T/C (dose: 120.0 mg/kg/injection, schedule: Q01DX005 (ip), vehicle: Klucel (hydroxypropylcellulose) (HPC)): 90 % of control
- T/C (dose: 240.0 mg/kg/injection, schedule: Q01DX005 (ip), vehicle: Klucel (hydroxypropylcellulose) (HPC)): 100 % of control

SMILES: C[n+]1cccc(C(=O)OCC(C)(C)N(Cl)Cl)c1
- T/C (dose: 50.0 mg/kg/injection, schedule: Q01DX009 (ip), vehicle: saline): 109 % of control

SMILES: CCN(CC)CCOC(=O)Nc1cc(Cl)cc(Cl)c1
- T/C [6]: 100 % of control
- T/C [7]: 101 % of control
- T/C [8]: 100 % of control

SMILES: COc1cccc(-n2c(SC)nccc2=O)c1
- T/C (dose: 100.0 mg/kg/injection, schedule: Q04DX003 (ip), vehicle: Klucel (hydroxypropylcellulose) (HPC)): 100 % of control
- T/C (dose: 200.0 mg/kg/injection, schedule: Q04DX003 (ip), vehicle: Klucel (hydroxypropylcellulose) (HPC)): 101 % of control
- T/C (dose: 400.0 mg/kg/injection, schedule: Q04DX003 (ip), vehicle: Klucel (hydroxypropylcellulose) (HPC)): 100 % of control

SMILES: CCOC(=O)/C=C/c1c[nH]c(=O)[nH]c1=O
- T/C (dose: 12.5 mg/kg/injection, schedule: Q01DX009 (ip), vehicle: distilled water + Tween-80): 100 % of control
- T/C (dose: 25.0 mg/kg/injection, schedule: Q01DX009 (ip), vehicle: distilled water + Tween-80): 96 % of control
- T/C (dose: 50.0 mg/kg/injection, schedule: Q01DX009 (ip), vehicle: distilled water + Tween-80): 92 % of control
- T/C (dose: 100.0 mg/kg/injection, schedule: Q01DX009 (ip), vehicle: distilled water + Tween-80): 88 % of control

SMILES: CC1CC(C)(C)CC2(C1)OCC(CCl)O2 (stereo not drawn)
- T/C (dose: 25.0 mg/kg/injection, schedule: Q01DX001 (ip), vehicle: saline with Tween-80): 109 % of control
- T/C (dose: 50.0 mg/kg/injection, schedule: Q01DX001 (ip), vehicle: saline with Tween-80): 104 % of control
- T/C (dose: 100.0 mg/kg/injection, schedule: Q01DX001 (ip), vehicle: saline with Tween-80): 109 % of control

SMILES: COCCOC(=O)CCCCC(=O)OCCOC
- T/C [4]: 100 % of control
- T/C (dose: 100.0 mg/kg/injection, schedule: Q04DX003 (ip), vehicle: saline sonified): 100 % of control
- T/C [5]: 104 % of control
- T/C (dose: 200.0 mg/kg/injection, schedule: Q04DX003 (ip), vehicle: saline sonified): 100 % of control
- T/C (dose: 400.0 mg/kg/injection, schedule: Q01DX009 (ip), vehicle: saline with Tween-80): 109 % of control
- T/C (dose: 400.0 mg/kg/injection, schedule: Q04DX003 (ip), vehicle: saline sonified): 95 % of control

SMILES: CC(=O)OCc1c(COC(C)=O)c(-c2ccccc2)n2c1CCC2
- T/C (dose: 12.5 mg/kg/injection, schedule: Q01DX009 (ip), vehicle: Klucel (hydroxypropylcellulose) (HPC)): 110 % of control
- T/C (dose: 50.0 mg/kg/injection, schedule: Q01DX009 (ip), vehicle: Klucel (hydroxypropylcellulose) (HPC)): 87 % of control

SMILES: CCOC(=O)C(Cc1ccc(O)cc1)NCc1ccc(N(CCCl)CCCl)cc1 (stereo not drawn)
- T/C (dose: 12.5 mg/kg/injection, schedule: Q01DX009 (ip), vehicle: saline with Tween-80): 109 % of control
- T/C (dose: 25.0 mg/kg/injection, schedule: Q01DX009 (ip), vehicle: saline with Tween-80): 113 % of control
- T/C [4]: 160 % of control
